Source: patent US20180286508A1, “DETERMINATION OF FAVORABLE DATE(S) FOR THERAPEUTIC TREATMENT DELIVERY” (Mayo Foundation for Medical Education and Research, priority 2015, published 2018)
Values joined by “and” are separate entries in the source; they are usually repeats but may differ in a detail not shown here. Equal entries are not always repeated.

Experiments:
[1] = system: CD8+ effector T-cells and dendritic cells (DCs); details: therapeutical doses, in vitro; cited from earlier work
[2] = standard TMZ doses, 200 mg/m2 daily over 5 days, cycles every 28 days; cited from earlier work
[3] = system: non proliferating peripheral blood lymphocytes; details: therapeutical doses, in vitro; cited from earlier work
[4] = system: patients with unresectable stage IV malignant melanoma; test: Clinical trial of timed TMZ chemotherapy (timed on CRP oscillation) in stage IV melanoma patients; assay type: in vivo, human
From the text: In an example clinical trial described herein, the patient population included patients with unresectable stage IV malignant melanoma. Eligible patients had unresectable, histologically confirmed stage IV disease, age over 18 years, measurable disease as defined by the Response Evaluation Criteria in Solid Tumors (RECIST), Eastern Cooperative Oncology Group (ECOG) performance status (PS) of 0-2, and life expectancy ≥3 months. Both newly diagnosed, previously untreated patients, as well as patients who have had prior therapy for their metastatic disease were enrolled.
Treatment was initiated with temozolomide (TMZ) 150 mg/m^2 on days 1-5 on cycle 1 and the dose was increased to 200 mg/m^2 for all subsequent cycles if tolerated. Patients were treated every 4 weeks until progression, unacceptable toxicity or patient refusal. Prior to initiation of first chemotherapy cycle, eligible patients underwent peripheral blood testing for immunological biomarkers (immune variables) every 2-3 days for a period of two weeks. The blood samples were tested for a total of 52 variables; that is, 52 measurements of cytokine concentrations and cell counts in blood samples.
The time series of six CRP concentration measurements was fitted to a sine curve. The curve was then extrapolated for two periods and the next consecutive peaks of CRP concentration were predicted. Based on the periodicity of CRP oscillations, TMZ chemotherapy was initiated prior to the estimated time of the next CPR peak, or on day 14 post-registration if the peak could not be identified.
The purpose of the curve fitting analysis is to determine whether any of the measured immune variables change in a predictable fashion following a cyclical pattern (dynamic equilibrium of immunity and cancer). Therefore, the goal of the curve fitting analysis is to assess whether concentrations of plasma cytokines/chemokines and immune cells fluctuate, and if so, to determine whether these fluctuations follow a mathematically predictable cyclical pattern. To that end, the plasma levels for the 52 immune variables ([…] different cytokines/chemokines/growth factors and the percentage of 22 immune cell subsets) in serial blood samples collected every 2-3 days prior to initiation of TMZ therapy were measured in 10 patients with metastatic malignant melanoma. […] Technical reproducibility was assessed by the coefficient of variation among duplicates (average coefficient of variation was 5.13% for 1593 data points).

[5] = system: patients with metastatic melanoma (stage IV); test: Phase II clinical trial MC1076 of timed administration of TMZ; assay type: in vivo, human; details: for number of patients with PFS >4 months: 17 patients
From the text: Eligible patients had unresectable, histologically confirmed stage IV disease, age over 18 years, measurable disease as defined by the Response Evaluation Criteria in Solid Tumors (RECIST), Eastern Cooperative Oncology Group (ECOG) performance status of 0-2, and life expectancy≥3 months (See Table 10). Both previously untreated patients and patients who have had prior therapy for their metastatic disease (excluding prior exposure to TMZ) were eligible. All patients provided signed informed written consent, and the study was approved by the Mayo Clinic Rochester Institutional Review Board. The TMZ dose was 150 mg/m2 on days 1-5 of cycle 1 and was increased to 200 mg/m2 on days 1-5 each month for all subsequent cycles if well tolerated. Patients were treated every 28 days until progression, unacceptable toxicity or patient refusal. Prior to initiation of first chemotherapy cycle, eligible patients underwent serial daily peripheral blood testing for 10 days of 69 immune biomarkers (42 cytokines, and 27 immune cell subtypes) per time point/patient. At the end of the sample collections, all data was jointly analyzed and a day for individualized TMZ delivery was calculated according to the proposed model (below). Patients received their therapy during the time, predicted by the model. All patients were followed for clinical outcomes.
Time-dependent profiles of blood concentration of IL-12p70, CD197/CD206, IL-1ra were built based on a series of pre-treatment measurements. The data was fitted to a sine curve and the extrapolated for a period of 10 days. Chemotherapy was initiated on the day when the extrapolated value of the combination of these immune parameters was at maximum.
The MC1076 study was designed to assess the anti-tumor activity of timed administration of TMZ. A two-stage phase II clinical trial design will be used to test the hypothesis that the 4 month PFS rate is at most 45% against the alternative hypothesis that the 4 month PFS rate is at least 65%. Progression-free survival was defined as the time from registration to documentation of disease progression or death without disease progression documented.
Analysis of infradian (multi-day) dynamics in systemic immunity of patients with metastatic melanoma. Based on data, both published and from our lab, we hypothesized that the anti-tumor systemic immune response in patients with cancer is not a static but a dynamic event. In order to study the global temporal behavior of systemic anti-tumor immunity, we conducted a phase II clinical trial (MC1076; NCT01328535). In this study, patients with metastatic melanoma underwent a period of immunological monitoring consisting of 10 daily PB collections (10 mL) over 12 days prior to initiation of therapy with TMZ. There was no blood collection on weekend days. At the end of the sample collection period, samples were batched analyzed (to minimize inter-assay variability for a given patient) for measurement of dynamic changes of plasma cytokines and immune cell subsets using established, standardized, and Good Laboratory Practice (GLP)-validated methodology in our laboratory.^35 Time-dependent profiles of immune variables (cytokines and immune cell subsets) were then analyzed and an optimal day for initiation of TMZ therapy was prospectively computed by the algorithm described below. […]

[6] = LMR <1 on the day of TMZ initiation
[7] = LMR >1 on the day of TMZ initiation

Cn1nnc2c(C(N)=O)ncn2c1=O [TMZ, temozolomide]
impairment of the function of CD8+ effector T-cells and dendritic cells [1]: did not impair
serum concentrations [2]: up to 50 μM
impairment of non proliferating peripheral blood lymphocytes [3]: did not impair
PFS ([4]; Table 4, one line per patient, 8 patients with metastatic cutaneous melanoma, TMZ 150 to 200 mg/m^2 days 1-5 every 4 weeks): 70 days and 68 days and 37 days and 916 days and 748 days and 132 days and 91 days and 77 days
PFS ([4]; Table 6, one line per patient, same 8 melanoma patients): 37 days and 91 days and 32 days and 77 days and 916 days and 841 days and 68 days and 70 days
average PFS ([4]; four patients with sum of ranks of IL12p70 and CD197/CD206 above 15): 68 days
average PFS ([4]; four patients with sum of ranks of IL12p70 and CD197/CD206 below 15): 466 days
PFS ([4]; two patients with disorganized (non-curve-fitting) anti-tumor immune responses): 71 days and 74 days
number of patients with PFS <4 months [5, 6]: 7
number of patients with PFS >4 months [5, 6]: 1
number of patients with PFS <4 months [5, 7]: 3
number of patients with PFS >4 months [5, 7]: 6
PFS ([5]; Table 11, one line per patient, 24 patients, time from registration to progression, CR = complete response): 644 days and 242 days and 184 days and 47 days and 83 days and 301 days and 136 days and 752 days and 102 days and 78 days and 39 days and 107 days and 72 days (2×) and 53 days and 48 days and 80 days and 73 days and 130 days and 77 days and 133 days and 198 days
